This is an account of results in PubChem BioAssay AID256 (DTP/NCI, 2004).

The test system of this assay is CD2F1 mice, L1210 leukemia ip, survival T/C. In words: NCI In Vivo Anticancer Drug Screen. Data for tumor model L1210 Leukemia (intraperitoneal) in CD2F1 (CDF1) mice. The note with it: higher = longer survival. An outline of the steps: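 Vehicle-treated tumor-bearing mice served as controls (C) for compound-treated mice (T). Reported figure is T divided by C.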
[1] abbreviates: endpoint: mean survival time, dose: 100.0 mg/kg/injection, schedule: Q01DX009 (ip), vehicle: saline with Tween-80.
[2] abbreviates: endpoint: mean survival time, dose: 200.0 mg/kg/injection, schedule: Q01DX009 (ip), vehicle: saline with Tween-80.
Where [3] appears, read: endpoint: mean survival time, dose: 50.0 mg/kg/injection, schedule: Q01DX009 (ip), vehicle: saline with Tween-80.

Molecules are shown by their SMILES. Inconclusive results and toxic doses are left out.

For the compound `C1CCC(C2CCCC[N-]2)[N-]C1.C1CCC(C2CCCC[N-]2)[N-]C1.O=N[O-].O=N[O-].[Ru+4]` (configuration not stated), the T/C is 90 % of control (endpoint: mean survival time, dose: 3.13 mg/kg/injection, schedule: Q04DX003 (ip), vehicle: distilled water + Tween-80); 95 % of control (endpoint: mean survival time, dose: 6.25 mg/kg/injection, schedule: Q04DX003 (ip), vehicle: distilled water + Tween-80); 95 % of control (endpoint: mean survival time, dose: 12.5 mg/kg/injection, schedule: Q04DX003 (ip), vehicle: distilled water + Tween-80); 93 % of control (endpoint: mean survival time, dose: 25.0 mg/kg/injection, schedule: Q04DX003 (ip), vehicle: distilled water + Tween-80); 92 % of control (endpoint: mean survival time, dose: 50.0 mg/kg/injection, schedule: Q04DX003 (ip), vehicle: distilled water + Tween-80); 90 % of control (endpoint: mean survival time, dose: 100.0 mg/kg/injection, schedule: Q04DX003 (ip), vehicle: distilled water + Tween-80). For the setting “endpoint: mean survival time, dose: 200.0 mg/kg/injection, schedule: Q04DX003 (ip), vehicle: distilled water + Tween-80”, the T/C was 90 % of control.
Turning to `O=[N+]([O-])c1ccc2c(c1)COCO2`, the T/C was 97 % of control under setting [1]; 97 % of control under setting [2]; 96 % of control (endpoint: mean survival time, dose: 400.0 mg/kg/injection, schedule: Q01DX009 (ip), vehicle: saline with Tween-80).
Consider `CCCC(C)CC(=CC(C)(C)C)CC(C)CCC` (configuration not stated), for which the T/C by setting is: under setting [3], 96 % of control; under setting [1], 100 % of control; under setting [2], 100 % of control.
With `O=C(C=C(C(F)(F)F)C(F)(F)F)c1ccc(Br)cc1`, the T/C was 107 % of control (endpoint: mean survival time, dose: 12.5 mg/kg/injection, schedule: Q01DX009 (ip), vehicle: other); 110 % of control (endpoint: mean survival time, dose: 25.0 mg/kg/injection, schedule: Q01DX009 (ip), vehicle: other); 105 % of control (endpoint: mean survival time, dose: 100.0 mg/kg/injection, schedule: Q04DX003 (ip), vehicle: other).
Turning to `CCOc1ccc(-c2nc3ccc(-c4nc5ccc(N6CCN(C)CC6)cc5[nH]4)cc3[nH]2)cc1`, the T/C was 112 % of control (endpoint: median survival time, dose: 0.75 mg/kg/injection, schedule: Q01DX009 (ip), vehicle: saline); 94 % of control (endpoint: median survival time, dose: 0.75 mg/kg/injection, schedule: Q01DX009 (ip), vehicle: suspension in saline); 112 % of control (endpoint: median survival time, dose: 1.5 mg/kg/injection, schedule: Q01DX009 (ip), vehicle: saline); 95 % of control (endpoint: median survival time, dose: 1.5 mg/kg/injection, schedule: Q01DX009 (ip), vehicle: suspension in saline); 104 % of control (endpoint: median survival time, dose: 3.0 mg/kg/injection, schedule: Q01DX009 (ip), vehicle: suspension in saline); 105 % of control (endpoint: median survival time, dose: 6.0 mg/kg/injection, schedule: Q01DX009 (ip), vehicle: suspension in saline). The T/C was 104 % of control (endpoint: median survival time, dose: 12.0 mg/kg/injection, schedule: Q01DX009 (ip), vehicle: suspension in saline); 118 % of control (endpoint: median survival time, dose: 24.0 mg/kg/injection, schedule: Q01DX009 (ip), vehicle: saline); 117 % of control (endpoint: median survival time, dose: 24.0 mg/kg/injection, schedule: Q01DX009 (ip), vehicle: suspension in saline).
On to `O=NN(CCCl)C(=O)Nc1cc(NC(=O)N(CCCl)N=O)cc(C(=O)O)c1`, for which the T/C is 186 % of control (endpoint: mean survival time, dose: 10.0 mg/kg/injection, schedule: Q04DX003 (ip), vehicle: saline with Tween-80) and 212 % of control (endpoint: mean survival time, dose: 20.0 mg/kg/injection, schedule: Q04DX003 (ip), vehicle: saline with Tween-80).
Consider `COC(=O)C(Cl)c1ccc2c(c1)OCO2` (configuration not stated), for which the T/C was 96 % of control under setting [3]; 96 % of control under setting [1]; 96 % of control (endpoint: mean survival time, dose: 100.0 mg/kg/injection, schedule: Q04DX003 (ip), vehicle: saline with Tween-80); 93 % of control (endpoint: mean survival time, dose: 200.0 mg/kg/injection, schedule: Q04DX003 (ip), vehicle: saline with Tween-80).
On to `CS(=O)(=O)Cc1cnc(N)nc1-c1ccccc1`, for which the T/C reads like this: (endpoint: mean survival time, dose: 100.0 mg/kg/injection, schedule: Q01DX001 (ip), vehicle: saline with Tween-80) 94 % of control; (endpoint: mean survival time, dose: 200.0 mg/kg/injection, schedule: Q01DX001 (ip), vehicle: saline with Tween-80) 97 % of control; (endpoint: mean survival time, dose: 400.0 mg/kg/injection, schedule: Q01DX001 (ip), vehicle: saline with Tween-80) 94 % of control.
`Nc1ccc(CCC(=O)Nc2ccc(S(=O)(=O)F)cc2)cc1`: the T/C by setting is: (endpoint: mean survival time, dose: 100.0 mg/kg/injection, schedule: Q01DX001 (ip), vehicle: saline) 97 % of control; (endpoint: mean survival time, dose: 200.0 mg/kg/injection, schedule: Q01DX001 (ip), vehicle: saline) 102 % of control; (endpoint: mean survival time, dose: 400.0 mg/kg/injection, schedule: Q01DX001 (ip), vehicle: saline) 97 % of control.
